Reference: US4835150A, “Cephem compounds” (Beecham Group p.l.c., priority 1985, dated 1989)

Experiments:
Assay type in all cases: cell-based
Proteus mirabilis C977 = test: MIC by serial dilution in Iso-Sensitest Agar, P. mirabilis C977; details: 24 h, overnight at 37° C.
Procedure: (§1) Minimum Inhibitory Concentration (MIC) values of compounds of the invention against P. mirabilis C977, S. marcescens US 32, and P. aeruginosa K79961 were determined by serial dilution in Iso-Sensitest Agar (from Oxiod Ltd., Basinstoke, England). The plates were inoculated with […] colony forming units and incubated overnight at 37° C. The MIC values recorded in Table 1 were the lowest concentration of antibiotic to inhibit growth. Comparative data for sodium 7β[2-(3,4-diacetoxyphenyl)-2-[(4-ethyl-2,3-dioxopiperazin-1yl)carbonylamino]acetomido]-7α-formamido-3-[(2-methyl-1,3,4-thiadiazol-5yl)thiomethyl]ceph-3em-4-carboxylate (Compound A), disclosed in European Patent Application No. 82303821.1 (Publication No. 0 071 395) are also given.

[1] = system: Pseudomonas aeruginosa K79961; test: MIC by serial dilution in Iso-Sensitest Agar, P. aeruginosa K79961; details: 24 h, overnight at 37° C.
Procedure: as §1

[2] = system: Serratia marcescens US 32; test: MIC by serial dilution in Iso-Sensitest Agar, S. marcescens US 32; details: US32, 24 h, overnight at 37° C.
Procedure: as §1

Row | Structure (SMILES) | MIC (Proteus mirabilis C977) | MIC [1] | MIC [2]
1 | CCN1CCN(C(=O)NC(C(=O)N[C@]2(NC=O)C(=O)N3C(C(=O)O)=C(CSc4nnc(C)s4)CS[C@@H]32)c2ccc(OC(C)=O)c(OC(C)=O)c2)C(=O)C1=O (stereo partly drawn) [Compound A, sodium 7β[2-(3,4-diacetoxyphenyl)-2-[(4-ethyl-2,3-dioxopiperazin-1yl)carbonylamino]acetomido]-7α-formamido-3-[(2-methyl-1,3,4-thiadiazol-5yl)thiomethyl]ceph-3em-4-carboxylate, reference compound] | 4 µg/mL | 2 µg/mL | 1 µg/mL
2 | CCN1CCN(C(=O)N[C@@H](C(=O)N[C@]2(NC=O)C(=O)N3C(C(=O)O)=C(CSc4nncs4)CS[C@@H]32)c2ccc(OC(C)=O)c(OC(C)=O)c2)C(=O)C1=O [Example 1, Sodium 7β-[D-2-(3,4-Diacetoxyphenyl)-2-[(4-ethyl-2,3-dioxopiperazin-1-yl)carbonylamino]acetamido]-7α-formamido-3-[(1,3,4-thiadiazol-2-yl)thiomethyl]ceph-3-em-4-carboxylate] | 1 µg/mL | 0.25 µg/mL | 0.25 µg/mL
3 | CCN1CCN(C(=O)N[C@@H](C(=O)N[C@]2(NC=O)C(=O)N3C(C(=O)O)=C(CSc4nncs4)CS[C@@H]32)c2ccc(O)c(O)c2)C(=O)C1=O [Example 2, Sodium 7β-[D-2-(3,4-Dihydroxyphenyl)-2-[(4-ethyl-2,3-dioxopiperazin-1-yl)carbonylamino]acetamido]-7α-formamido-3-[(1,3,4-thiadiazol-2-yl)thiomethyl]ceph-3-em-4-carboxylate] | 1 µg/mL | 0.5 µg/mL | 0.12 µg/mL
